Experimental data reported in patent EP1247803A2, “Indolinone compounds suitable for modulation of protein kinases” (Sugen, Inc., priority 1996, dated 1998).

Assays:
EGFR = target: T1, EGFR (Homo sapiens, UniProt P00533); experiment: EGFR ELISA assay (in vitro kinase activity, EGFR captured from A431 cell lysate); assay type: biochemical; parameters: concentration or dose not given beside the values
T1 construct: Add 7 ug A431 cell lysate per well (EGFR source); endogenous in cells; host or cells: A431
T1 sequence (P00533 25-1210): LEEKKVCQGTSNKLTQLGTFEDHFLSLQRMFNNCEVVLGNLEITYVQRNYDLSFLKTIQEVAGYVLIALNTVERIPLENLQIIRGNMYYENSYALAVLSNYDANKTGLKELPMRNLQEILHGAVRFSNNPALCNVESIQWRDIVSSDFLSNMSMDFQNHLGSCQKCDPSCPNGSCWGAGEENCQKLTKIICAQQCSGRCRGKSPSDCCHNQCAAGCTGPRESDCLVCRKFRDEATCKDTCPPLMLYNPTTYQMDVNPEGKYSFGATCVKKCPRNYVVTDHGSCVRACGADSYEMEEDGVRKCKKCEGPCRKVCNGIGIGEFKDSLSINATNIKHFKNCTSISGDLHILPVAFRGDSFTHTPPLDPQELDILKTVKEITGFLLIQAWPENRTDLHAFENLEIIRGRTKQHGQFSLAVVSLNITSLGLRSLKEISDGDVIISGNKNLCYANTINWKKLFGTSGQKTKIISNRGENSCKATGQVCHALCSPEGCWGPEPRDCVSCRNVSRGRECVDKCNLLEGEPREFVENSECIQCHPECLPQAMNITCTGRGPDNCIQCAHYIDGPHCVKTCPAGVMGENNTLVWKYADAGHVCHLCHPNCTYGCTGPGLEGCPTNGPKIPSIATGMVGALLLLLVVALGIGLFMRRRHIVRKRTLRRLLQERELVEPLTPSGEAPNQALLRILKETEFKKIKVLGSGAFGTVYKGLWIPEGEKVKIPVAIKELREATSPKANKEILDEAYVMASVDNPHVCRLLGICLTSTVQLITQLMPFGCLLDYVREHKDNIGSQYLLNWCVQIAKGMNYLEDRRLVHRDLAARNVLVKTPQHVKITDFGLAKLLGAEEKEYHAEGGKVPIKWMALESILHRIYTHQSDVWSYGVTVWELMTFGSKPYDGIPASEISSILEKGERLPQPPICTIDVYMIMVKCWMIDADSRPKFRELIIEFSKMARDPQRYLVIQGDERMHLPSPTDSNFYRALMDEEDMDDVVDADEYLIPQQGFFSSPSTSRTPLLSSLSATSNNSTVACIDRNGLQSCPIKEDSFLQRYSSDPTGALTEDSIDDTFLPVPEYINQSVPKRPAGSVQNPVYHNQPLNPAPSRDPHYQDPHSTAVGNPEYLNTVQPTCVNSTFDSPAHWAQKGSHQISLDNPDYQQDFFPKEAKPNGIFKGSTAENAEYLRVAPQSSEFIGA
How it was run: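 Receptor autophosphorylation was read by ELISA: anti-phosphotyrosine serum and an HRP-linked secondary with ABTS substrate, absorbance at 410 nm (reference 630 nm). The reaction ran 5 min with 3 µM ATP and 5 mM MnCl2 and was quenched by 20 mM EDTA. Compounds were first incubated 30 min with antibody-captured EGFR from A431 cell lysate.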

MET = MET biochemical kinase assay; parameters: species or system human; concentration or dose not given beside the values
How it was run: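 Immunocaptured MET autophosphorylation, read colorimetrically (TMB) via HRP anti-phosphotyrosine antibody. Kinase reaction initiated with buffer containing ATP and divalent metals after compound addition to plate-bound receptor from lysates.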

Row | Compound | Biochem EGFR %Inhibition (EGFR) | Met Kinase % Inhibition (MET)
1 | CNS(=O)(=O)c1ccc2c(c1)C(=Cc1cccc([N+](=O)[O-])c1)C(=O)N2 [10719/D10] | -11.8% | 22.3%
2 | COc1ccc(O)c(C=C2C(=O)Nc3ccc(I)cc32)c1 [10720/B10] | 50.2% | 45.2%
3 | O=C1Nc2ccc(CCCl)cc2C1=Cc1ccc(O)cc1 [10719/G07] | -8.1% | 24.0%
4 | O=C1Nc2ccc(CCCl)cc2C1=Cc1ccc(F)cc1C(F)(F)F [10719/G11] | -44.1% | 24.0%
5 | O=C1Nc2ccc(I)cc2C1=Cc1c(F)cc(F)cc1F [10720/B02] | 18.4% | 38.8%
6 | O=C1Nc2c(Br)cc(Br)cc2C1=Cc1ccccc1O [10720/A05] | -4.4% | 43.4%
7 | CCOc1ccc(C=C2C(=O)Nc3ccc(S(=O)(=O)N4CCOCC4)cc32)cc1OC [10719/F02] | 14.8% | 28.1%
8 | O=C1Nc2ccc(CCCl)cc2C1=Cc1cccc([N+](=O)[O-])c1 [10719/G10] | -27.6% | 35.5%
9 | O=C1Nc2c(Br)cc(Br)cc2C1=Cc1ccccc1 [10720/A06] | 44.7% | 63.6%
10 | COc1ccc(C=C2C(=O)Nc3ccc(Br)c(C)c32)cc1OC [10720/C04] | -13.1% | 29.0%
11 | O=C1Nc2ccc(I)cc2C1=Cc1ccccc1O [10720/B05] | 58.4% | 51.8%
12 | O=C1Nc2ccc(S(=O)(=O)Nc3ccc(C(F)(F)F)cc3)cc2C1=Cc1ccc(F)cc1C(F)(F)F [10719/E11] | -51.8% | 28.5%
13 | O=C1Nc2ccc(S(=O)(=O)Nc3ccc(C(F)(F)F)cc3)cc2C1=Cc1ccc(F)cc1Cl [10719/E09] | -33.1% | 36.1%
14 | COc1ccc(C=C2C(=O)Nc3ccc(S(=O)(=O)N4CCOCC4)cc32)c(OC)c1 [10719/F04] | -6.0% | 3.3%
15 | O=C1Nc2ccc(S(=O)(=O)N3CCOCC3)cc2C1=Cc1cccc([N+](=O)[O-])c1 [10719/F10] | -17.7% | 30.8%
16 | Cc1cc(O)cc(O)c1C=C1C(=O)Nc2ccc(I)cc21 [10720/B08] | -12.6% | 27.7%
17 | CCOc1cc(C=C2C(=O)Nc3ccc(Br)c(C)c32)ccc1O [10720/C09] | 44.7% | 47.5%
18 | CCOc1cc(C=C2C(=O)Nc3ccc(I)cc32)ccc1O [10720/B09] | 37.6% | 57.4%
19 | COc1ccc(C=C2C(=O)Nc3ccc(CCCl)cc32)c(OC)c1 [10719/G04] | -4.7% | -8.2%
20 | O=C1Nc2ccc(S(=O)(=O)Nc3ccc(C(F)(F)F)cc3)cc2C1=Cc1ccc(O)c(O)c1 [10719/E03] | 73.0% | 87.2%

Row | Compound | Biochem EGFR %Inhibition (EGFR) | Met Kinase % Inhibition (MET)
21 | CNS(=O)(=O)c1ccc2c(c1)C(=Cc1ccc(OC)cc1OC)C(=O)N2 [10719/D04] | 15.3% | 28.9%
22 | Cc1c(Br)ccc2c1C(=Cc1ccc(F)cc1C(F)(F)F)C(=O)N2 [10719/C11] | -25.7% | -5.1%
23 | Cc1cc(O)cc(O)c1C=C1C(=O)Nc2c(Br)cc(Br)cc21 [10720/A08] | -23.2% | 77.9%
24 | O=C1Nc2ccc(CCCl)cc2C1=Cc1ccc(O)c(O)c1 [10719/G03] | 89.5% | 87.6%
25 | CCc1c(C)[nH]c(C=C2C(=O)Nc3ccc(CCCl)cc32)c1C [10719/G05] | 4.0% | 15.9%
26 | O=C1Nc2ccc(S(=O)(=O)N3CCOCC3)cc2C1=Cc1ccc(F)cc1Cl [10719/F09] | -17.7% | 19.2%
27 | CCOc1ccc(C=C2C(=O)Nc3ccc(S(=O)(=O)NC)cc32)cc1OC [10719/D02] | 9.8% | 27.5%
28 | CSc1ccc(C=C2C(=O)Nc3ccc(I)cc32)s1 [10720/B07] | 52.0% | 61.5%
29 | COc1cc(O)ccc1C=C1C(=O)Nc2ccc(I)cc21 [10720/B03] | 32.3% | 53.3%
30 | COc1ccc(O)c(C=C2C(=O)Nc3c(Br)cc(Br)cc32)c1 [10720/A10] | -2.7% | 68.4%
31 | CN(C)c1ccc(C=C2C(=O)Nc3ccc(S(=O)(=O)N4CCOCC4)cc32)cc1 [10719/F08] | 90.9% | 75.7%
32 | CNS(=O)(=O)c1ccc2c(c1)C(=Cc1ccc(N(C)C)cc1)C(=O)N2 [10719/D08] | -12.2% | 45.2%
33 | Cc1cc(O)cc(O)c1C=C1C(=O)Nc2ccc(Br)c(C)c21 [10720/C08] | -1.1% | 65.6%
34 | CNS(=O)(=O)c1ccc2c(c1)C(=Cc1ccc(F)cc1Cl)C(=O)N2 [10719/D09] | -3.1% | 13.0%
35 | Cc1ccc(C=C2C(=O)Nc3ccc(I)cc32)s1 [10717/B07] | 58.3% | 90.0%
36 | O=C1Nc2ccc(S(=O)(=O)N3CCOCC3)cc2C1=Cc1ccc(O)cc1 [10719/F07] | 20.1% | 36.7%
37 | COc1cccc(O)c1C=C1C(=O)Nc2ccc(I)cc21 [10717/B10] | 16.1% | 56.1%
38 | CCc1c(C)[nH]c(C=C2C(=O)Nc3ccc(S(=O)(=O)N4CCOCC4)cc32)c1C [10719/F05] | 35.0% | 63.1%
39 | CNS(=O)(=O)c1ccc2c(c1)C(=Cc1ccc(O)cc1OC)C(=O)N2 [10720/D03] | 0.9% | 61.5%
40 | O=C1Nc2ccc(S(=O)(=O)Nc3ccc(C(F)(F)F)cc3)cc2C1=Cc1cccc([N+](=O)[O-])c1 [10719/E10] | -32.4% | 40.2%
